Results: ChEMBL document CHEMBL5154914, “Discovery of Pentacyclic Triterpenoid PROTACs as a Class of Effective Hemagglutinin Protein Degraders” (J Med Chem, 2022)
Activity calls are given as the source filed them. No cut-off for these calls is given here.

How the values were obtained:
[1] = target: T1, von Hippel-Lindau disease tumor suppressor/Hemagglutinin (Homo sapiens, UniProt P03452+P40337); assay: Protac activity at VHL (unknown origin)/influenza A hemagglutinin transfected in HEK293T cells assessed as degradation of hemagglutinin incubated for 10 hrs by Western blot analysis; format: cell-based
[2] = target: T1, von Hippel-Lindau disease tumor suppressor/Hemagglutinin; assay: Protac activity at VHL (unknown origin)/influenza A hemagglutinin transfected in HEK293T cells assessed as degradation of hemagglutinin at 0.39 to 25 uM incubated for 10 hrs by Western blot analysis; format: cell-based; details: dose 0.39-25 µM
Target sequence in this assay (P03452 whole entry, looked up): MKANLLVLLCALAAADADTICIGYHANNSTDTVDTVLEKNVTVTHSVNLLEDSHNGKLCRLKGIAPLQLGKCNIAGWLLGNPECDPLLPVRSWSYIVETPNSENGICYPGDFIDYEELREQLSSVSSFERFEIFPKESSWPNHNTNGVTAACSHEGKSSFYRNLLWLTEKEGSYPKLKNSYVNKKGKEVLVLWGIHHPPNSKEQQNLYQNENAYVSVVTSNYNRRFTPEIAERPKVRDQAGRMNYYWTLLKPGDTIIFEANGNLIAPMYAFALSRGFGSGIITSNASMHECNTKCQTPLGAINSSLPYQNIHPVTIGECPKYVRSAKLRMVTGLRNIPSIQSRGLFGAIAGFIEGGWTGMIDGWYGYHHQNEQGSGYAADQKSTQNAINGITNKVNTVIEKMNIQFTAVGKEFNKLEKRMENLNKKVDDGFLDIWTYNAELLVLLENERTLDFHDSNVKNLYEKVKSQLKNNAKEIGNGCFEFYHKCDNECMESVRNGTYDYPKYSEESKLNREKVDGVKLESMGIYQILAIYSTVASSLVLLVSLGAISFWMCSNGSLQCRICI
Target sequence in this assay (P40337 whole entry, looked up): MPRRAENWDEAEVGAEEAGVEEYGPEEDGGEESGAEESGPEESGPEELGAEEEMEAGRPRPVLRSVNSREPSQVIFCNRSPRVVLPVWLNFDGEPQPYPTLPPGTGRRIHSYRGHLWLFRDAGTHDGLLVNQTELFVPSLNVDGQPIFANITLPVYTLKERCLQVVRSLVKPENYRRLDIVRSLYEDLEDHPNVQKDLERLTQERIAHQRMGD

[3] = system: HEK-293T; assay: Cytotoxicity against HEK293T cells assessed as reduction in cell viability at 50 uM incubated for 36 hrs by Celltiter-Glo assay; format: toxicity, cell-based; details: human
[4] = target: Hemagglutinin (Influenza A virus, UniProt B4URE7); assay: Binding affinity to recombinant influenza A hemagglutinin assessed as dissociation constant by SPR assay
[5] = Tmax in BALB/c mouse infected with Influenza A A/WSN/33 (H1N1) virus at 50 mg/kg, po administered as single dose measured after 24 hrs by LC-MS analysis; format: ADME, organism-based; details: in vivo
[6] = system: Influenza A virus; assay: Antiviral activity against Influenza A A/WSN/33 (H1N1) infected in BALB/c mouse assessed as fold reduction plaque count at 10 to 20 mg/kg/day, iv incubated for 4 to 16 days relative to control; format: functional; details: dose 10-20 mg/kg/day, time 4-16 day
[7] = system: Influenza A virus; assay: Antiviral activity against Influenza A A/WSN/33 (H1N1) infected in BALB/c mouse assessed as reduction in virus induced lung lesion at 10 mg/kg, iv measured on day 4 by histopathological staining based analysis; format: functional, organism-based; details: time 4.0 day
[8] = target: T1, von Hippel-Lindau disease tumor suppressor/Hemagglutinin; assay: Protac activity at VHL (unknown origin)/influenza A hemagglutinin transfected in HEK293T cells assessed as reduction in hemagglutinin level at 10 uM by immunoblotting analysis relative to control; format: cell-based; design: scale not given: the % may be the effect or the level left
Target sequence in this assay (P03452 whole entry, looked up): as the sequence (P03452 whole entry, looked up) above
Target sequence in this assay (P40337 whole entry, looked up): as the sequence (P40337 whole entry, looked up) above

[9] = system: Influenza A virus; assay: Antiviral activity against Influenza A A/California/08/2009 (H1N1) infected in HEK293T cells incubated for 12 hrs; format: functional, organism-based; details: HEK-293T
[10] = system: Influenza B virus; assay: Antiviral activity against Influenza B B/Florida/4/2006 infected in HEK293T cells incubated for 12 hrs; format: functional, organism-based; details: B/Florida/4/2006, HEK-293T
[11] = target: T1, von Hippel-Lindau disease tumor suppressor/Hemagglutinin; assay: Protac activity at VHL (unknown origin)/influenza A hemagglutinin transfected in HEK293T cells assessed as degradation of hemagglutinin incubated for 24 hrs by Western blot analysis; format: cell-based; details: dose 0.03-33.3 µM, DDE = dose-dependent effect
Target sequence in this assay (P03452 whole entry, looked up): as the sequence (P03452 whole entry, looked up) above
Target sequence in this assay (P40337 whole entry, looked up): as the sequence (P40337 whole entry, looked up) above

[12] = Cmax in BALB/c mouse infected with Influenza A A/WSN/33 (H1N1) virus at 10 mg/kg, iv measured after 24 hrs by LC-MS analysis; format: ADME, organism-based; design: time 24 hrs, dose 10 mg/kg, route iv; details: in vivo
[13] = Elimination half life in BALB/c mouse infected with Influenza A A/WSN/33 (H1N1) virus at 50 mg/kg, po measured after 24 hrs by LC-MS analysis; format: ADME, organism-based; details: in vivo, read-out: LambdaZ (converted)
[14] = system: Influenza A virus; assay: Antiviral activity against Influenza A A/WSN/33 (H1N1) infected in BALB/c mouse assessed as plaque reduction at 10 to 20 mg/kg/day, iv incubated for 4 to 16 days (reference value: 2.7x10^6 PFU/g); format: functional; details: dose 10-20 mg/kg/day, time 4-16 day
[15] = target: T1, von Hippel-Lindau disease tumor suppressor/Hemagglutinin; assay: Protac activity at VHL (unknown origin)/influenza A hemagglutinin transfected in HEK293T cells assessed as accumulation of ubiquitinated hemagglutinin at 20 uM preincubated for 4 hrs followed by proteosome inhibitor, MG-132 addition and measured after 4 hrs by Immunoprecipitation analysis; format: cell-based
Target sequence in this assay (P03452 whole entry, looked up): as the sequence (P03452 whole entry, looked up) above
Target sequence in this assay (P40337 whole entry, looked up): as the sequence (P40337 whole entry, looked up) above

[16] = Cytotoxicity against HEK293T cells assessed as cell viability at 50 uM incubated for 36 hrs by Celltiter-Glo assay relative to control; format: toxicity, cell-based, HEK-293T; details: human, read-out: Activity
[17] = system: Influenza A virus; assay: Antiviral activity against Influenza A A/WSN/33 (H1N1) infected in HEK293T cells incubated for 12 hrs; format: functional, organism-based; details: HEK-293T
[18] = AUCinfinity in BALB/c mouse infected with Influenza A A/WSN/33 (H1N1) virus at 50 mg/kg, po measured after 24 hrs by LC-MS analysis; format: ADME, organism-based; design: time 24 hrs, dose 50 mg/kg, route po; details: in vivo
[19] = Cmax in BALB/c mouse infected with Influenza A A/WSN/33 (H1N1) virus at 50 mg/kg, po measured after 24 hrs by LC-MS analysis; format: ADME, organism-based; design: time 24 hrs, dose 50 mg/kg, route po; details: in vivo
[20] = target: T1, von Hippel-Lindau disease tumor suppressor/Hemagglutinin; assay: Protac activity at VHL (unknown origin)/influenza A hemagglutinin transfected in HEK293T cells assessed as degradation of hemagglutinin incubated for 12 hrs by Western blot analysis; format: cell-based; details: dose 0.39-25 µM, DDE = dose-dependent effect
Target sequence in this assay (P03452 whole entry, looked up): as the sequence (P03452 whole entry, looked up) above
Target sequence in this assay (P40337 whole entry, looked up): as the sequence (P40337 whole entry, looked up) above

[21] = Acute toxicity in BALB/c mouse infected with Influenza A A/WSN/33 (H1N1) virus assessed as decrease in body weight at 10 to 20 mg/kg/day, iv administered for 5 days starting from 2 hrs post infection and measured daily for 14 days; format: organism-based; details: in vivo, 336 h, dose 10-20 mg/kg/day, time 14 day
[22] = target: T1, von Hippel-Lindau disease tumor suppressor/Hemagglutinin; assay: Protac activity at VHL (unknown origin)/influenza A hemagglutinin transfected in HEK293T cells assessed as degradation of hemagglutinin at 33 uM incubated for 24 hrs by Western blot analysis relative to control; format: cell-based
Target sequence in this assay (P03452 whole entry, looked up): as the sequence (P03452 whole entry, looked up) above
Target sequence in this assay (P40337 whole entry, looked up): as the sequence (P40337 whole entry, looked up) above

[23] = target: von Hippel-Lindau disease tumor suppressor (Homo sapiens, UniProt P40337); assay: Binding affinity to human recombinant VHL assessed as dissociation constant by SPR assay
[24] = target: T1, von Hippel-Lindau disease tumor suppressor/Hemagglutinin; assay: Protac activity at VHL (unknown origin)/influenza A hemagglutinin transfected in HEK293T cells assessed as degradation of hemagglutinin incubated for 7 to 10 hrs by Western blot analysis; format: cell-based; details: time 7-10 hrs
[25] = Elimination half life in BALB/c mouse infected with Influenza A A/WSN/33 (H1N1) virus at 10 mg/kg, iv measured after 24 hrs by LC-MS analysis; format: ADME, organism-based; details: in vivo, read-out: LambdaZ (converted)
[26] = MRT in BALB/c mouse infected with Influenza A A/WSN/33 (H1N1) virus at 50 mg/kg, po measured after 24 hrs by LC-MS analysis; format: ADME, organism-based; details: in vivo
[27] = Oral bioavailability in BALB/c mouse infected with Influenza A A/WSN/33 (H1N1) virus at 50 mg/kg measured after 24 hrs by LC-MS analysis; format: ADME, organism-based; details: in vivo
[28] = AUCinfinity in BALB/c mouse infected with Influenza A A/WSN/33 (H1N1) virus at 10 mg/kg, iv measured after 24 hrs by LC-MS analysis; format: ADME, organism-based; design: dose 10 mg/kg, time 24 hrs, route iv; details: in vivo
[29] = MRT in BALB/c mouse infected with Influenza A A/WSN/33 (H1N1) virus at 10 mg/kg, iv measured after 24 hrs by LC-MS analysis; format: ADME, organism-based; details: in vivo
[30] = system: Influenza A virus; assay: Antiviral activity against Influenza A A/Aichi/2/68 (H3N2) infected in HEK293T cells incubated for 12 hrs; format: functional, organism-based; details: HEK-293T
[31] = system: Influenza A virus; assay: Antiviral activity against influenza A A/WSN/33 (H1N1) infected in HEK293T cells assessed as reduction in hemagglutinin level at virion replication and release stage at 25 uM mesured after 3 to 9 hrs by immunofluorescence based confocal microscopic analysis; format: functional, organism-based; details: time 3-9 hrs
[32] = Acute toxicity in BALB/c mouse infected with Influenza A A/WSN/33 (H1N1) virus assessed as mortality at 10 to 20 mg/kg/day, iv administered for 5 days starting from 2 hrs post infection and measured daily for 14 days; format: organism-based; details: in vivo, 336 h, dose 10-20 mg/kg/day, time 14 day
[33] = system: Influenza A virus; assay: Antiviral activity against Influenza A A/WSN/33 (H1N1) infected in BALB/c mouse assessed as recovery of body weight at 10 to 20 mg/kg/day, iv administered for 5 days starting from 2 hrs post infection and measured daily for 14 days; format: functional, organism-based; details: dose 10-20 mg/kg/day, time 14.0 day
[34] = system: Influenza A virus; assay: Antiviral activity against Influenza A A/WSN/33 (H1N1) infected in BALB/c mouse assessed as reduction in virus induced inflammation at 10 mg/kg, iv measured on day 4 by histopathological staining based analysis; format: functional, organism-based; details: time 4.0 day
[35] = target: T2, Protein cereblon/Hemagglutinin (Influenza A virus) (UniProt B4URE7+Q96SW2); assay: Protac activity at CRBN (unknown origin)/Influenza A hemagglutinin transfected in HEK293T cells assessed as induction of hemagglutinin degradation at 0.78 uM incubated for 24 hrs by Western blot analysis relative to control; format: cell-based
[36] = target: T2, Protein cereblon/Hemagglutinin (Influenza A virus); assay: Protac activity at CRBN (unknown origin)/Influenza A hemagglutinin transfected in HEK293T cells assessed as induction of hemagglutinin degradation at 50 uM incubated for 12 hrs by Western blot analysis relative to control; format: cell-based
[37] = system: Influenza A virus; assay: Antiviral activity against Influenza A A/WSN/33 (H1N1) infected in dog MDCK cells assessed as inhibition of viral induced cytopathic effect incubated for 40 hrs by CellTiter-Glo assay; format: functional, organism-based

Sequence of von Hippel-Lindau disease tumor suppressor (P40337 whole entry): as the sequence (P40337 whole entry, looked up) above

SMILES: Cc1ncsc1-c1ccc(CNC(=O)[C@@H]2C[C@@H](O)CN2C(=O)[C@@H](NC(=O)CCOCCOCCOCCOCCOCCOCCOCCNC(=O)[C@]23CCC(C)(C)C[C@H]2C2=CC[C@@H]4[C@@]5(C)CC[C@H](O)C(C)(C)[C@@H]5CC[C@@]4(C)[C@]2(C)CC3)C(C)(C)C)cc1
- Activity [1]: Active
- Activity [2]: Active
- Activity [3]: Toxic

SMILES: Cc1ncsc1-c1ccc(CNC(=O)[C@@H]2C[C@@H](O)CN2C(=O)[C@@H](NC(=O)CCOCCOCCOCCOCCOCCOCCOCCOCCOCCOCCNC(=O)[C@]23CCC(C)(C)C[C@H]2C2=CC[C@@H]4[C@@]5(C)CC[C@H](O)C(C)(C)[C@@H]5CC[C@@]4(C)[C@]2(C)CC3)C(C)(C)C)cc1
- Activity [3]: Toxic

SMILES: Cc1ncsc1-c1ccc(CNC(=O)[C@@H]2CCCN2C(=O)[C@@H](NC(=O)CCOCCOCCOCCNC(=O)[C@]23CCC(C)(C)C[C@H]2C2=CC[C@@H]4[C@@]5(C)CC[C@H](O)C(C)(C)[C@@H]5CC[C@@]4(C)[C@]2(C)CC3)C(C)(C)C)cc1
- Kd [4]: 3.18 µM
- Tmax [5]: 0.5 h
- fold change (FC) [6]: 3.5
- Activity [7]: Active
- DC50 [1]: 1.44 µM
- Activity [8]: 60%
- EC50 [9]: 5.98 µM
- EC50 [10]: > 25 µM
- Activity [11]: Dde
- Cmax [12]: 2070 ng/mL
- half-life [13]: 2.63 h
- Activity [14]: 8.1 10^5PFU/g
- Activity [15]: Active
- viability at 36 h, 50 µM [16]: > 85%
- EC50 [17]: 4.53 µM
- AUC(0-inf) [18]: 2550 ng·h/mL
- Cmax [19]: 2070 ng/mL
- Activity [20]: Dde
- Activity [21]: Non-Toxic
- Activity [22]: 50%
- Kd [23]: 9.25 µM
- Activity [24]: Active
- half-life [25]: 2.87 h
- MRT [26]: 1.56 h
- bioavailability [27]: 6.8%
- Activity [3]: 85%
- AUC(0-inf) [28]: 7450 ng·h/mL
- MRT [29]: 0.98 h
- EC50 [30]: 8.98 µM
- Activity [31]: Active
- Activity [32]: Non-Toxic
- Activity [33]: Active
- Activity [34]: Active

SMILES: Cc1ncsc1-c1ccc(CNC(=O)[C@@H]2C[C@@H](O)CN2C(=O)[C@@H](NC(=O)CCOCCOCCOCCOCCOCCNC(=O)[C@]23CCC(C)(C)C[C@H]2C2=CC[C@@H]4[C@@]5(C)CC[C@H](O)C(C)(C)[C@@H]5CC[C@@]4(C)[C@]2(C)CC3)C(C)(C)C)cc1
- Activity [3]: Toxic

SMILES: CC1(C)CC[C@]2(C(=O)NCCOCCOCCOCCNc3cccc4c3C(=O)N(C3CCC(=O)NC3=O)C4=O)CC[C@]3(C)C(=CC[C@@H]4[C@@]5(C)CC[C@H](O)C(C)(C)[C@@H]5CC[C@]43C)[C@@H]2C1 (some centres undefined)
- Activity [35]: > 50%
- Activity [36]: 20%

SMILES: CC1(C)CC[C@]2(C(=O)O)CC[C@]3(C)C(=CC[C@@H]4[C@@]5(C)CC[C@H](O)C(C)(C)[C@@H]5CC[C@]43C)[C@@H]2C1 [OLEANOLIC_ACID]
- Kd [4]: 10.9 µM
- IC50 [37]: > 200 µM

SMILES: Cc1ncsc1-c1ccc(CNC(=O)[C@@H]2CCCN2C(=O)[C@@H](N)C(C)(C)C)cc1
- Kd [23]: 4.97 µM

SMILES: Cc1ncsc1-c1ccc(CNC(=O)[C@@H]2C[C@@H](O)CN2C(=O)[C@@H](NC(=O)CCOCCOCCNC(=O)[C@]23CCC(C)(C)C[C@H]2C2=CC[C@@H]4[C@@]5(C)CC[C@H](O)C(C)(C)[C@@H]5CC[C@@]4(C)[C@]2(C)CC3)C(C)(C)C)cc1
- Activity [11]: Dde
- Activity [20]: Dde
- Activity [22]: 50%

SMILES: Cc1ncsc1-c1ccc(CNC(=O)[C@@H]2C[C@@H](O)CN2C(=O)[C@@H](NC(=O)CCOCCNC(=O)[C@]23CCC(C)(C)C[C@H]2C2=CC[C@@H]4[C@@]5(C)CC[C@H](O)C(C)(C)[C@@H]5CC[C@@]4(C)[C@]2(C)CC3)C(C)(C)C)cc1
- Activity [11]: Dde
- Activity [20]: Dde
- Activity [22]: 50%
